Patent publication US20070275887A1, “Method of Inhibiting Secretase Activity” (priority 2003, published 2007)
Non-standard residues stand in square brackets, D forms with d. Residues, ends and D or L forms follow the SMILES beside them. *: point of attachment. Nle = CCCC[C@H](N)C(=O)O; Cbz = O=C(OCc1ccccc1)*

Columns and labels:
[1] = tested on: Embryonic fibroblasts (MEFs) from wild-type and synoviolin gene-deficient mice; assay: Effect of a γ-secretase inhibitor on cell proliferation activity (Alamer Blue) in wild-type and synoviolin-deficient MEFs; format: cell-based, mouse; conditions: MEFs 1×10^3 cells/well, treated 24 hours, Alamer Blue absorbance after 2 hours; Syno −/− compared with Syno +/+ (FIG. 5)
Protocol: Since there are ethical objections to sensitivity measurement tests using the brains of Alzheimer's patients, another evaluation system needs to be used for evaluating the sensitivity of the secretase inhibitor. The inventors therefore used an evaluation system in which cells were treated with a secretase inhibitor and cell proliferation was used as the marker of secretase inhibition. There are no particular limits on the type of secretase here, and examples include β-secretase and γ-secretase. Consequently, the secretase inhibitor can be either a β-secretase inhibitor or a γ-secretase inhibitor. There are no particular limits on the secretase inhibitor, and examples include L-685,458 (Peptide Institute), (3,5-Difluorophenylacetyl)-Ala-Phg-OBu^t [DAPT] (Peptide Institute), Lys-Thr-Glu-Glu-Ile-Ser-Glu-Val-Asn-Sta-Val-Ala-Glu-Phe (Peptide Institute), Z-Leu-Leu-Nle-CHO (Wako) and the like.
Secretase activity is judged to have been inhibited when cell proliferation activity is suppressed. […]
Embryonic fibroblasts (MEFs) obtained from synoviolin gene-introduced mice (wild-type mice) and synoviolin gene-deficient mice were inoculated to 1×10^3 cells/well on 96-well plates, and cultured overnight. After culture the cells were treated with a γ-secretase inhibitor (Z-Leu-Leu-Nle-CHO, Wako) and cultured for 24 hours, after which Alamer Blue was added and absorbance was measured after 2 hours.

[2] = molecular target: T1, FLAG-tagged synoviolin (human, UniProt Q86TM6 1-617); assay: co-immunoprecipitation (anti-HA or anti-FLAG) and Western blotting from HEK293T cells
T1 construct: not shown: FLAG tag
T1 sequence (Q86TM6 whole entry E545G): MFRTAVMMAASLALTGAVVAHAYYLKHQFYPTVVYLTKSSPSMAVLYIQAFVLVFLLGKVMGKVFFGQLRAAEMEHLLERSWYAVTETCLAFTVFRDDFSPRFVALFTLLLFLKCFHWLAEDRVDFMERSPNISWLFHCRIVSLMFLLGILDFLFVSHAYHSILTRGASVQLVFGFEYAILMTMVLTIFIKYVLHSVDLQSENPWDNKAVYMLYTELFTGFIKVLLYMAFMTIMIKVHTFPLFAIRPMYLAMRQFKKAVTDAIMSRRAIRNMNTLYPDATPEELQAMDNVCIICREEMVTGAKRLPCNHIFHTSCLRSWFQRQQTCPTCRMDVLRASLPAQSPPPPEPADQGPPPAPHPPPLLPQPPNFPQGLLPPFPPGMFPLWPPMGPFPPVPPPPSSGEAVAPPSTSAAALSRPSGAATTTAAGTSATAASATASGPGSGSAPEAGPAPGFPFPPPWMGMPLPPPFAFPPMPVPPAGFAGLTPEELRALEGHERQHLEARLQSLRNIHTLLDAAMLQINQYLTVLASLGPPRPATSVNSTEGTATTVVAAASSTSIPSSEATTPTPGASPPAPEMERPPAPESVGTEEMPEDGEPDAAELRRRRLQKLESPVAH
Protocol: An HA tag was attached to the N-terminal of this gene, which was inserted into a pcDNA3 vector. Next, Ha-tagged Herp, Herp(-bind) and a blank vector were each strongly expressed together with FLAG-tagged synoviolin in HEK293T cells. After 24 hours whole cell extract (WCE) was extracted, expression of each protein was confirmed, and immunoprecipitation was performed with anti-HA antibodies or anti-FLAG antibodies.

Molecule: CCCC[C@@H](C=O)NC(=O)[C@H](CC(C)C)NC(=O)[C@H](CC(C)C)NC(=O)OCc1ccccc1 [Z-Leu-Leu-Nle-CHO] (Cbz-Leu-Leu-[Nle]-aldehyde)
- effect of the γ-secretase inhibitor on cell proliferation activity [1]: greater in the cells derived from synoviolin-deficient mice than in the cells derived from wild-type mice

B1: HA-tagged Herp(-bind) (other)
chain: MESETEPEPVTLLVKSPNQRHRDLELSGDRGWSVGHLKAHLSRVYPERPRPEDQRLIYSGKLLLDHQCLRDLLPKQEKRHVLHLVCNVKSPSKMPEINAKVAESTEEPAGSNRGQYPEDSSSDGLRQREVLRNLSSPGWENISRPEAAQQAFQGLGPGFSAQEIPVVSAPAPAPIHNQFPAENQPANQNAAPQVVVNPGANQNLRMNAQGGPIVEEDDEINRDWLDWTYSAATFSVFLSILYFYSSLSRFLMVMGATVVMYLHHVGWFPFRPRPVQNFPNDGPPPDVVNQDPNNNLQEGTDPETEDPNHLPPDRDVLDGEQTSPSFMSTAWLVFKTFFASLLPEGPPAIAN
notes: not shown: HA tag at the N-terminal
- binding result [2]: no binding
